The target in this test is Cdk9/cyclinT1 (Homo sapiens, UniProt P50750). Briefly: Cdk9/CyclinT1 IMAP assay.

Bounds are passed on as bounds.

Sequence of Cdk9/cyclinT1 (P50750 whole entry): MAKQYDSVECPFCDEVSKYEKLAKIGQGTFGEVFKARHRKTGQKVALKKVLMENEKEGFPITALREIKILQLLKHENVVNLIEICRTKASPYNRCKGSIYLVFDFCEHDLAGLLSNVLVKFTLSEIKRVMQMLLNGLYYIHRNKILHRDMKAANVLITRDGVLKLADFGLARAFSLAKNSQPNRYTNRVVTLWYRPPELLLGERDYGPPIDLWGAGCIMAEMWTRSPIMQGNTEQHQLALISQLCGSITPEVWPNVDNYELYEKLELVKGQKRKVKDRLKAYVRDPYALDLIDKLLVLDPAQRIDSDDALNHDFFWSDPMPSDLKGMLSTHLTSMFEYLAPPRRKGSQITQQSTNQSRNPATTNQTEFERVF
Sequence of Cdk9/cyclinT1 (O60563 whole entry partner): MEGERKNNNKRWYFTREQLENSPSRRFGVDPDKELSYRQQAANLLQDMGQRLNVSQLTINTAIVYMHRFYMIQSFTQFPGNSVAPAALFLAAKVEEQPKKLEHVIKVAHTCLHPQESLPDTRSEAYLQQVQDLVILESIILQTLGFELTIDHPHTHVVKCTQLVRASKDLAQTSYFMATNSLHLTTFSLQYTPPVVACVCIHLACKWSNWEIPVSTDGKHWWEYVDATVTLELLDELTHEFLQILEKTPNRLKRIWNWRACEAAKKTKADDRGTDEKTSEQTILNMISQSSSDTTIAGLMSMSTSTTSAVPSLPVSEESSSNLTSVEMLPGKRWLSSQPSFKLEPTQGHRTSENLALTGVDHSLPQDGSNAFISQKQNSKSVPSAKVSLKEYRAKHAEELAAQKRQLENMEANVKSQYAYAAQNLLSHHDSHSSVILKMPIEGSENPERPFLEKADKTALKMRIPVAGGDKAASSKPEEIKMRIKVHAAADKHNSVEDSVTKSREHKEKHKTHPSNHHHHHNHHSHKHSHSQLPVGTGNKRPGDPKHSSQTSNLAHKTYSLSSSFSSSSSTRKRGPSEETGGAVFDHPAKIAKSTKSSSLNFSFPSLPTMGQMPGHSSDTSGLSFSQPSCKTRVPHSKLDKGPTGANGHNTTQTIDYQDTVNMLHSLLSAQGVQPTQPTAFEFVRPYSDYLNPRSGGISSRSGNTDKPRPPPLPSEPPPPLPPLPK
Experimental: The final total protein concentration in the assay is 4 nM. […] The final concentration of peptide substrate is 100 nM. […] The final concentration of ATP substrate is 6 uM. IMAP (Immobilized Metal Assay for Phosphochemicals) Progressive Binding reagent is purchased from Molecular Devices, cat#R8139. Fluorescence polarization (FP) is used for detection. The 5TAMRA-cdk7tide peptide is phosphorylated by Cdk9/cyclinT1 kinase using the ATP substrate. The Phospho-5TAMRA-cdk7tide peptide substrate is bound to the IMAP Progressive Binding Reagent. […] IMAP Progressive Binding Reagent is diluted 1:800 in 100% 1× Solution A from Molecular Devices, cat#R7285.
General protocol is as follows: To 10 ul of cdk9/cyclinT1, 0.5 ul of test compound in dimethyl sulfoxide is added. [sequence]-cdk7tide and ATP are mixed. 10 ul of the 5TAMRA-cdk7tide/ATP mix is added to start the reaction. The reaction is allowed to proceed for 4.5 hrs. 60 uL of IMAP Progressive Binding Reagent is added.

Turning to `CC(C)(CN)CNc1cc(-c2cncc(NCc3cccc(F)c3)c2)c(Cl)cn1` [Compound 12], the 50% inhibitory concentration (IC50) was 32 nM. That is a double-digit nanomolar value. The figure for `CN(C)CC(C)(C)CNc1cc(-c2cncc(NCc3cccc(F)c3)c2)c(Cl)cn1` [Compound 13] is 130 nM. With `COc1cccc(CNc2cncc(-c3cc(N[C@H]4CC[C@H](N)CC4)ncc3Cl)c2)c1` [Compound 15], the IC50 was 8 nM.

In turn, `O[C@H]1CC[C@@H](Nc2cc(-c3cc(NCC4CCOCC4)cnc3Cl)c(Cl)cn2)CC1` [Compound 17] yielded a concentration for half-maximal inhibition (IC50) of 25 nM. In the case of `N[C@H]1CC[C@@H](Nc2cc(-c3cncc(NCc4cccc(F)c4)c3)c(Cl)cn2)CC1` [Compound 21] it was 11 nM. With `N[C@H]1CC[C@H](Nc2cc(-c3cncc(NCc4cccnc4)c3)c(Cl)cn2)CC1` [Compound 22], the 50% inhibitory concentration (IC50) was 9 nM. This IC50 and that of the compound before are within 1.5-fold of each other. The figure for `N[C@H]1CC[C@H](Nc2cc(-c3cncc(NCC4CCCCC4)c3)c(Cl)cn2)CC1` [Compound 23] is 10 nM; for `N[C@H]1CC[C@H](Nc2cc(-c3cncc(NCc4cccc(F)c4)c3)c(Cl)cn2)CC1` [Compound 24, N2′-(trans-4-aminocyclohexyl)-5′-chloro-N5-(3-fluorobenzyl)-3,4′-bipyridine-2′,5-diamine] it is less than 8 nM; for `Clc1cnc(N[C@H]2CC[C@H](NC[C@H]3CCCO3)CC2)cc1-c1cc(NCC2CCOCC2)cnc1Cl` [Compound 25, 2,5′-dichloro-N5-((tetrahydro-2H-pyran-4-yl)methyl)-N2′-(trans-4-(((R)-tetrahydrofuran-2-yl)methylamino)cyclohexyl)-3,4′-bipyridine-2′,5-diamine] it is less than 8 nM. `N[C@H]1CC[C@H](Nc2cc(-c3cnc(N4CCOCC4)c(NCC4CCOCC4)c3)c(Cl)cn2)CC1` [Compound 26, N2′-(trans-4-aminocyclohexyl)-5′-chloro-6-morpholino-N5-((tetrahydro-2H-pyran-4-yl)methyl)-3,4′-bipyridine-2′,5-diamine] showed a half-inhibitory concentration (IC50) of 1960 nM. The figure for `Clc1cnc(NC2CC2)cc1-c1cncc(NCC2CCOCC2)c1` [Compound 27] is 57 nM; for `CN1CCC(CNc2cc(-c3cncc(NCC4CCOCC4)c3)c(Cl)cn2)CC1` [Compound 28] it is 1970 nM. Consider `N[C@H]1CC[C@H](Nc2cc(-c3cncc(NCC4CCCOC4)c3)c(Cl)cn2)CC1` (stereo partly shown) [Compound 29], for which the IC50 was determined as 16 nM. `OCCNc1cc(-c2cncc(NCc3cccc(F)c3)c2)c(Cl)cn1` [Compound 30]: the half-inhibitory concentration (IC50) was less than 8 nM.

Consider `CN(C)[C@H]1CC[C@H](Nc2cc(-c3cncc(NCc4cccc(F)c4)c3)c(Cl)cn2)CC1` [Compound 31, 5′-chloro-N2′-(trans-4-(dimethylamino)cyclohexyl)-N5-(3-fluorobenzyl)-3,4′-bipyridine-2′,5-diamine], for which the half-maximal inhibitory concentration (IC50) is less than 8 nM. With `CN(Cc1cccc(F)c1)c1cncc(-c2cc(N[C@H]3CC[C@H](N)CC3)ncc2Cl)c1` [Compound 32], the IC50 turned out to be 16 nM.

Consider `N[C@H]1CC[C@H](Nc2cc(-c3cncc(NCc4ccc(F)cc4)c3)c(Cl)cn2)CC1` [Compound 33], for which the IC50 was less than 8 nM. Take `Cc1cccc(CNc2cncc(-c3cc(N[C@H]4CC[C@H](N)CC4)ncc3Cl)c2)c1` [Compound 34]: the 50% inhibitory concentration (IC50) was less than 8 nM.

Consider `N[C@H]1CC[C@H](Nc2cc(-c3cncc(NCc4ccc(F)c(F)c4)c3)c(Cl)cn2)CC1` [Compound 35], for which the IC50 is less than 8 nM.

As for `CC(=O)N1CCC(CNc2cncc(-c3cc(N[C@H]4CC[C@H](N)CC4)ncc3Cl)c2)CC1` [Compound 36, 1-(4-((2′-(trans-4-aminocyclohexylamino)-5′-chloro-3,4′-bipyridin-5-ylamino)methyl)piperidin-1-yl)ethanone], half-maximal inhibition (IC50) was put at 32 nM. This counts as double-digit nanomolar. For `OCCNc1cc(-c2cnc(N3CCOCC3)c(NCc3cccc(F)c3)c2)c(Cl)cn1` [Compound 37], the half-maximal inhibitory concentration (IC50) worked out at 6920 nM. As for `CN(C)CCCCNc1cc(-c2cncc(NCc3cccc(F)c3)c2)c(Cl)cn1` [Compound 38], it took 21 nM to reach half-maximal inhibition (IC50). As to `NC[C@H]1CC[C@H](Nc2cc(-c3cncc(NCc4cccc(F)c4)c3)c(Cl)cn2)CC1` [Compound 39, N2′-(trans-4-(aminomethyl)cyclohexyl)-5′-chloro-N5-(3-fluorobenzyl)-3,4′-bipyridine-2′,5-diamine], the IC50 was less than 8 nM. Compound `OCCCNc1cc(-c2cncc(NCc3cccc(F)c3)c2)c(Cl)cn1` [Compound 40] came in with a 50% inhibitory concentration (IC50) of less than 8 nM. In the case of `C[C@H](CO)Nc1cc(-c2cncc(NCC3CCOCC3)c2)c(Cl)cn1` [Compound 41] it was 325 nM; in that of `N[C@H]1CC[C@H](Nc2cc(-c3cncc(NCc4cccc(Cl)c4)c3)c(Cl)cn2)CC1` [Compound 42], less than 8 nM. Compound `N[C@H]1CC[C@H](Nc2cc(-c3cncc(NCc4cc(F)ccc4F)c3)c(Cl)cn2)CC1` [Compound 43] gave a concentration for half-maximal inhibition (IC50) of less than 8 nM.

For the compound `N[C@H]1CC[C@H](Nc2cc(-c3cncc(NCc4cccc(F)c4)c3)ccn2)CC1` [Compound 44, N2′-(trans-4-aminocyclohexyl)-N5-(3-fluorobenzyl)-3,4′-bipyridine-2′,5-diamine], the IC50 was less than 8 nM. The compound `N[C@H]1CC[C@H](Nc2cc(-c3cnc(N4CCOCC4)c(NCc4cccc(F)c4)c3)c(Cl)cn2)CC1` [Compound 45] had an IC50 of 610 nM. That is a sub-micromolar value. In the case of `O[C@H]1CC[C@H](Nc2cc(-c3cnc(N4CCOCC4)c(NCC4CCOCC4)c3)c(Cl)cn2)CC1` [Compound 46] it was 1830 nM; in that of `Fc1cccc(CNc2cncc(-c3cc(NC4CC4)ncc3Cl)c2)c1` [Compound 47], less than 8 nM.

For the compound `Fc1cccc(CNc2cncc(-c3cc(NC4CCCC4)ncc3Cl)c2)c1` [Compound 48], the IC50 is less than 8 nM. In the case of `Fc1cccc(CNc2cncc(-c3cc(NCC[C@H]4CCCNC4)ncc3Cl)c2)c1` [Compound 49] it was less than 8 nM; in that of `NCC(O)CNc1cc(-c2cncc(NCc3cccc(F)c3)c2)c(Cl)cn1` (stereo not shown) [Compound 50], 10 nM; in that of `N[C@H]1CC[C@H](Nc2cc(-c3cncc(NCc4ccccc4)c3)c(Cl)cn2)CC1` [Compound 51], less than 8 nM. `CS(=O)(=O)N1CCC(CNc2cncc(-c3cc(N[C@H]4CC[C@H](N)CC4)ncc3Cl)c2)CC1` [Compound 52] returned an IC50 of 35 nM. As for `O[C@H]1CC[C@H](Nc2cc(-c3cnc(N4CCOCC4)c(NCc4cccc(F)c4)c3)c(Cl)cn2)CC1` [Compound 53], the IC50 was determined as 660 nM. The figure for `O[C@H]1CC[C@H](Nc2cc(-c3cnc(F)c(NCC4CCOCC4)c3)c(Cl)cn2)CC1` [Compound 54] is less than 8 nM; for `N[C@H]1CC[C@H](Nc2cc(-c3cnc(F)c(NCC4CCOCC4)c3)c(Cl)cn2)CC1` [Compound 55, N2′-(trans-4-aminocyclohexyl)-5′-chloro-6-fluoro-N5-((tetrahydro-2H-pyran-4-yl)methyl)-3,4′-bipyridine-2′,5-diamine] it is less than 8 nM; for `Clc1cnc(NCC[C@H]2CCCNC2)cc1-c1cncc(NCC2CCOCC2)c1` [Compound 56] it is 68 nM. Regarding `OCCCNc1cc(-c2cncc(NCC3CCOCC3)c2)c(Cl)cn1` [Compound 57], 199 nM corresponded to half-maximal inhibition (IC50).

`COCCNc1cc(-c2cncc(NCC3CCOCC3)c2)c(Cl)cn1` [Compound 58] registered an IC50 of 2260 nM. This IC50 is about 11-fold higher than that of the compound before. On to `OCC(CO)Nc1cc(-c2cncc(NCc3cccc(F)c3)c2)c(Cl)cn1` [Compound 59], for which inhibition was half-maximal at 130 nM (IC50).

Source of the values: patent US20130324530A1 (Novartis AG, priority 2010, published 2013).
